Reference: patent US10344019B2 (priority 2010, dated 2019)
Read-outs that look alike come from different tables or passages of the source.

Experiments:
Assay in all cases: microbe, parasite or virus in culture
Type in all cases: cell-based
[1] = tested on: HCV 4a Rluc cells (NS5A chimeric genotype 1b Con1 replicon with genotype 4a NS5A gene); conditions: read-out: 4a
Summary of the method: (§1)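 Replicon cells stably carrying the listed RLuc-encoding dicistronic replicons were seeded and treated with DMSO serial dilutions of compound (10 mM stocks) diluted into culture medium. After 72 h, cells were lysed and Renilla luciferase activity measured. EC50 was derived by non-linear regression.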

[2] = tested on: HCV 2a JFH-1 Rluc cells (dicistronic genotype 2a JFH-1 replicon, RLuc reporter); conditions: genotype 2a JFH-1 replicon, RLuc reporter, read-out: 2a JFH
Summary of the method: (§2)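 Replicons used: genotype 1b Con1, 1a H77, 2a JFH-1, and a 2a JFH-1 chimera with J6-strain NS5A (M31 present), all dicistronic.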

[3] = tested on: HCV 1b RLuc cells (dicistronic genotype 1b Con1 replicon, RLuc reporter)
Summary of the method: as §2

[4] = tested on: HCV 1a RLuc cells (dicistronic genotype 1a H77 replicon, RLuc reporter); conditions: genotype 1a H77 replicon, RLuc reporter, read-out: 1a
Summary of the method: as §2

[5] = tested on: HCV 3a RLuc cells (NS5A chimeric genotype 1b Con1 replicon with consensus genotype 3a NS5A gene)
Summary of the method: as §1

[6] = Hepatitis C virus, read-out: 1b (nM)
[7] = Hepatitis C virus, read-out: 3a, genotype 3a NS5A chimeric 1b Con1 replicon

Row | Compound | EC50 ([1]; Hepatitis C virus) [nM] | EC50 ([2]; Hepatitis C virus) [nM] | EC50 [3, 6] [nM] | EC50 ([4]; Hepatitis C virus) [nM] | EC50 [5, 7] [nM] | EC50 ([1]; genotype 4a NS5A chimeric 1b Con1 replicon) [nM] | EC50 [2] [nM] | EC50 ([3]; read-out: 1b) [nM] | EC50 [4] [nM] | EC50 ([5]; read-out: 3a, genotype 3a NS5A chimeric 1b Con1 replicon) [nM]
1 | COC(=O)N[C@H](C(=O)N1CCC[C@H]1c1nc2ccc(-c3ccc4c(c3)C(F)(F)c3cc(-c5c[nH]c([C@@H]6CCCN6C(=O)[C@H](NC(=O)OC)c6ccccc6)n5)ccc3-4)cc2[nH]1)C1CCOCC1 [Example 218] | 0.001 to 0.99 | 0.001 to 0.999 | 0.01 | 0.001 to 0.999 | 0.001 to 0.99 |  |  |  |  | 
2 | COC(=O)N[C@H](C(=O)N1CCC[C@H]1c1nc2ccc(-c3ccc4c(c3)C(F)(F)c3cc(-c5c[nH]c([C@@H]6CCCN6C(=O)[C@@H](NC(=O)OC)C6CCOCC6)n5)ccc3-4)cc2[nH]1)C(C)C [Example 219] | 0.001 to 0.99 | 0.001 to 0.999 | 0.008 | 0.001 to 0.999 | 1 to 4.99 |  |  |  |  | 
3 | COC(=O)N[C@H](C(=O)N1CCC[C@H]1c1nc(-c2ccc3c(c2)C(F)(F)c2cc(-c4ccc5nc([C@@H]6CCCN6C(=O)[C@@H](NC(=O)OC)C6CCOCC6)[nH]c5c4)ccc2-3)c[nH]1)C(C)C [Example 220] | 0.001 to 0.99 | 0.001 to 0.999 | 0.011 | 0.001 to 0.999 | 1 to 4.99 |  |  |  |  | 
4 | COC(=O)N[C@H](C(=O)N1CCC[C@H]1c1ncc(-c2ccc3cc(-c4ccc(-c5cnc([C@@H]6CCCN6C(=O)[C@H](NC(=O)c6ccccn6)c6ccccc6)[nH]5)cc4)ccc3c2)[nH]1)C(C)C [Example 221] | 0.001 to 0.99 | 0.001 to 0.999 | 0.017 | 0.001 to 0.999 | 0.001 to 0.99 |  |  |  |  | 
5 | COC(=O)N[C@H](C(=O)N1CCC[C@H]1c1ncc(-c2ccc3cc(-c4ccc5c(c4)CCc4nc([C@@H]6CCCN6C(=O)[C@@H](NC(=O)OC)C6CCOCC6)[nH]c4-5)ccc3c2)[nH]1)C(C)C [Example 222] |  |  |  |  |  | 0.001 to 0.99 | 0.001 to 0.999 | 0.023 | 0.001 to 0.999 | 0.001 to 0.99
6 | COC(=O)N[C@H](C(=O)N1C[C@@H](O)C[C@H]1c1ncc(-c2ccc3cc(-c4ccc(-c5cnc([C@@H]6CCCN6C(=O)[C@H](NC(=O)OC)c6ccccc6)[nH]5)cc4)ccc3c2)[nH]1)C(C)C [Example 223] | 0.001 to 0.99 | 0.001 to 0.999 | 0.022 | 1 to 44 | 1 to 4.99 |  |  |  |  | 
7 | COC(=O)N[C@H](C(=O)N1CC(F)(F)C[C@H]1c1ncc(-c2ccc(-c3ccc4cc(-c5cnc([C@@H]6CCCN6C(=O)[C@H](NC(=O)OC)c6ccccc6)[nH]5)ccc4c3)cc2)[nH]1)C1CCOCC1 [Example 224] | 0.001 to 0.99 | 0.001 to 0.999 | 0.008 | 0.001 to 0.999 | 0.001 to 0.99 |  |  |  |  | 
8 | COC(=O)N[C@H](C(=O)N1CCC[C@H]1c1ncc(-c2ccc3cc(-c4ccc(-c5cnc([C@@H]6CC(F)(F)CN6C(=O)[C@H](NC(=O)OC)c6ccccc6)[nH]5)cc4)ccc3c2)[nH]1)C1CCOCC1 [Example 225] | 0.001 to 0.99 | 0.001 to 0.999 | 0.009 | 0.001 to 0.999 | 0.001 to 0.99 |  |  |  |  | 
9 | COC(=O)N[C@H](C(=O)N[C@H](c1nc(-c2ccc3c(c2)C(F)(F)c2cc(-c4ccc5nc([C@@H]6CCCN6C(=O)[C@H](NC(=O)OC)c6ccccc6)[nH]c5c4)ccc2-3)c[nH]1)C(C)C)C(C)C [Example 226] | 0.001 to 0.99 | 1 to 44 | 0.009 | 1 to 44 | 1 to 4.99 |  |  |  |  | 
10 | COC(=O)N[C@H](C(=O)N[C@H](c1nc(-c2ccc3c(c2)C(F)(F)c2cc(-c4ccc5nc([C@@H]6CCCN6C(=O)[C@H](NC(=O)OC)c6ccccc6)[nH]c5c4)ccc2-3)c[nH]1)C(C)C)C1CCOCC1 [Example 227] | 0.001 to 0.99 | 0.001 to 0.999 | 0.025 | 1 to 44 | 0.001 to 0.99 |  |  |  |  | 
11 | COC(=O)NC(C(=O)N1CCC[C@H]1c1nc(-c2ccc3cc(-c4ccc5c(ccc6nc([C@@H]7CCCN7C(=O)[C@@H](NC(=O)OC)C(C)C)[nH]c65)c4)ccc3c2)c[nH]1)c1cccnc1 (some centres unmarked) [Example 228] | 0.001 to 0.99 | 0.001 to 0.999 | 0.015 | 0.001 to 0.999 | 0.001 to 0.99 |  |  |  |  | 
12 | COC(=O)N[C@H](C(=O)N1CCC[C@H]1c1ncc(-c2ccc(C#Cc3ccc4c(ccc5nc([C@@H]6CCCN6C(=O)[C@@H](NC(=O)OC)C6CCOCC6)[nH]c54)c3)cc2)[nH]1)C(C)C [Example 229] | 0.001 to 0.99 | 0.001 to 0.999 | 0.018 | 0.001 to 0.999 | 1 to 4.99 |  |  |  |  | 
13 | COC(=O)NC(C(=O)N1CCC[C@H]1c1ncc(-c2ccc(-c3ccc4cc(-c5cnc([C@@H]6CCCN6C(=O)[C@@H](NC(=O)OC)C(C)C)[nH]5)ccc4c3)cc2)[nH]1)c1cnccn1 (some centres unmarked) [Example 230] | 1 to 4.99 | 1 to 44 | 0.012 | 0.001 to 0.999 | 1 to 4.99 |  |  |  |  | 
14 | COC(=O)NC(C(=O)N1CCC[C@H]1c1ncc(-c2ccc3cc(-c4ccc5c(c4)CCc4nc([C@@H]6CCCN6C(=O)[C@@H](NC(=O)OC)C(C)C)[nH]c4-5)ccc3c2)[nH]1)c1cnccn1 (some centres unmarked) [Example 231] | 0.001 to 0.99 | 1 to 44 | 0.019 | 0.001 to 0.999 | 1 to 4.99 |  |  |  |  | 
15 | COC(=O)N[C@H](C(=O)N1CC(F)(F)C[C@H]1c1ncc(-c2ccc(-c3ccc4cc(-c5cnc([C@@H]6CCCN6C(=O)[C@H](NC(=O)OC)c6ccccc6)[nH]5)ccc4c3)cc2)[nH]1)C(C)C [Example 232] | 0.001 to 0.99 | 0.001 to 0.999 | 0.004 | 0.001 to 0.999 | 0.001 to 0.99 |  |  |  |  | 
16 | COC(=O)N[C@H](C(=O)N1CC2(CC2)C[C@H]1c1ncc(-c2ccc(-c3ccc4cc(-c5cnc([C@@H]6CCCN6C(=O)[C@H](NC(=O)OC)c6ccccc6)[nH]5)ccc4c3)cc2)[nH]1)C(C)C [Example 233] | 0.001 to 0.99 | 0.001 to 0.999 | 0.005 | 0.001 to 0.999 | 0.001 to 0.99 |  |  |  |  | 
17 | COC(=O)N[C@H](C(=O)N1CC2(CC2)C[C@H]1c1ncc(-c2ccc(-c3ccc4cc(-c5cnc([C@@H]6CCCN6C(=O)[C@H](NC(=O)OC)c6ccccc6)[nH]5)ccc4c3)cc2)[nH]1)C1CCOCC1 [Example 234] | 0.001 to 0.99 | 0.001 to 0.999 | 0.011 | 0.001 to 0.999 | 0.001 to 0.99 |  |  |  |  | 
18 | COC(=O)N[C@H](C(=O)N1CCC[C@H]1c1ncc(-c2ccc3cc(-c4ccc(-c5cnc([C@@H]6CC7(CC7)CN6C(=O)[C@H](NC(=O)OC)c6ccccc6)[nH]5)cc4)ccc3c2)[nH]1)C(C)C [Example 235] | 0.001 to 0.99 | 0.001 to 0.999 | 0.004 | 0.001 to 0.999 | 1 to 4.99 |  |  |  |  | 
19 | COC(=O)N[C@H](C(=O)N1CCC[C@H]1c1ncc(-c2ccc3cc(-c4ccc(-c5cnc([C@@H]6CC7(CC7)CN6C(=O)[C@H](NC(=O)OC)c6ccccc6)[nH]5)cc4)ccc3c2)[nH]1)C1CCOCC1 [Example 236] | 0.001 to 0.99 | 0.001 to 0.999 | 0.011 | 0.001 to 0.999 | 0.001 to 0.99 |  |  |  |  | 
20 | COC(=O)N[C@H](C(=O)N1CCC[C@H]1c1ncc(-c2ccc3cc(-c4ccc(-c5cnc([C@@H]6CCCN6C(=O)[C@H](NC(=O)CN(C)C)c6ccccc6)[nH]5)cc4)ccc3c2)[nH]1)C(C)C [Example 237] | 0.001 to 0.99 | 0.001 to 0.999 | 0.023 | 0.001 to 0.999 | 0.001 to 0.99 |  |  |  |  | 
21 | COC(=O)N[C@H](C(=O)N1CCC[C@H]1c1nc2ccc3cc(C#Cc4ccc(-c5cnc([C@@H]6CCCN6C(=O)[C@H](NC(=O)OC)c6ccccc6)[nH]5)cc4)ccc3c2[nH]1)C(C)C [Example 238] | 0.001 to 0.99 | 0.001 to 0.999 | 0.005 | 0.001 to 0.999 | 0.001 to 0.99 |  |  |  |  | 
22 | COC(=O)NC(C(=O)N1CCC[C@H]1C1=NC(c2ccc3cc(-c4ccc5c(ccc6nc([C@@H]7CCCN7C(=O)[C@@H](NC(=O)OC)C7CCOCC7)[nH]c65)c4)ccc3c2)=CC1)c1cccnc1 (some centres unmarked) [Example 239] | 0.001 to 0.99 | 0.001 to 0.999 | 0.078 | 0.001 to 0.999 | 0.001 to 0.99 |  |  |  |  | 
23 | COC(=O)N[C@H](C(=O)N1CCC[C@H]1c1ncc(-c2ccc3cc(-c4ccc(-c5cnc([C@@H]6CCCN6C(=O)[C@@H](NC(=O)OC)[C@@H](C)OC)[nH]5)cc4)ccc3c2)[nH]1)C(C)C [Example 240] | 0.001 to 0.99 | 0.001 to 0.999 | 0.01 | 0.001 to 0.999 | 1 to 4.99 |  |  |  |  | 
24 | COC(=O)N[C@H](C(=O)N1CCC[C@H]1c1ncc(-c2ccc3cc(-c4ccc(-c5cnc([C@@H]6CCCN6C(=O)[C@@H](NC(=O)OC)[C@H](C)OC)[nH]5)cc4)ccc3c2)[nH]1)C(C)C [Example 241] | 0.001 to 0.99 | 1 to 44 | 0.011 | 0.001 to 0.999 | 1 to 4.99 |  |  |  |  | 
25 | COC(=O)N[C@H](C(=O)N1CCC[C@H]1c1nc2c([nH]1)-c1ccc(-c3ccc4cc(-c5cnc([C@@H]6CCCN6C(=O)[C@H](NC(=O)OC(C)(C)C)c6ccccc6)[nH]5)ccc4c3)cc1CC2)C(C)C [Example 242] | 0.001 to 0.99 | 0.001 to 0.999 | 0.008 | 0.001 to 0.999 | 0.001 to 0.99 |  |  |  |  | 
